Consider one compound from ChEMBL document CHEMBL5380844, “Discovery of a Novel, Potent, Orally Active, and Safe Inhibitor Targeting Human Mitochondrial RNA Polymerase” (J Med Chem, 2023).

Activity calls are given as the source filed them. No cut-off for these calls is given here. Where only a bound is given, the exact number is not on record here.

In data set [1] the test system is A2780. The data set is described as follows: Inhibition of colony formation in human A2780 cells assessed as appearance of smaller colonies at upto 500 nM incubated for 14 days by crystal violet staining based analysis. The following applies: time 14.0 day. It is filed as functional, cell-based.
For data set [2], the system named is A2780. Description: Inhibition of MT-ND4L expression in human A2780 cells at 100 nM incubated for 12 hrs by RNA sequencing analysis. It is filed as functional, cell-based.
Data set [3] relates to A2780. The data set is described as follows: Inhibition of MT-CO2 expression in human A2780 cells at 100 nM incubated for 12 hrs by RNA sequencing analysis. Format: functional, cell-based.
Another data set concerns MIA PaCa-2. Description: Antiproliferative activity against human MIA PaCa-2 cells incubated for 168 hrs by SRB method. Format: functional, cell-based. The note with it: MIA PaCa-2, 168 h.
In another data set the test system is IMR-90. The data set is described as follows: Antiproliferative activity against human IMR-90 cells incubated for 168 hrs by SRB method. Format: functional, cell-based. The following applies: IMR-90, 168 h. For orientation: In SRB staining, fixed cells bind dye roughly in proportion to their protein.
Data set [4] in a line: Toxicity in Balb/c mouse assessed as effect on heart at 100 mg/kg by H and E staining based analysis. Format: organism-based. The following applies: in vivo.

The term IC50 denotes the concentration at which inhibition is half-maximal. On to `Cc1ccc(-c2cc(=O)oc3cc(O[C@H](C)C(=O)N4CC5CCC(C4)N5C)ccc23)c(C)c1`, for which the inhibition result in the data set on A2780 [1], in the data set on A2780 [2] and with A2780 [3] was “Active” each time. Besides, the IC50 in the data set with MIA PaCa-2 was 88 nM; in the data set on IMR-90, over 50000 nM. Further, the Activity result in data set [4] is “Non-Toxic”.
